Test results published in PMC7178854 (Journal of Enzyme Inhibition and Medicinal Chemistry, 2020).

Columns and labels:
[1] = target: T1, ASFV protease (pS273R) (African swine fever virus BA71V, UniProt Q00946); type: biochemical
T1 construct: gene Ba71V-111

[2] = target: T1, ASFV protease (pS273R); assay: biochemical

T1 sequence (Q00946 whole entry, looked up): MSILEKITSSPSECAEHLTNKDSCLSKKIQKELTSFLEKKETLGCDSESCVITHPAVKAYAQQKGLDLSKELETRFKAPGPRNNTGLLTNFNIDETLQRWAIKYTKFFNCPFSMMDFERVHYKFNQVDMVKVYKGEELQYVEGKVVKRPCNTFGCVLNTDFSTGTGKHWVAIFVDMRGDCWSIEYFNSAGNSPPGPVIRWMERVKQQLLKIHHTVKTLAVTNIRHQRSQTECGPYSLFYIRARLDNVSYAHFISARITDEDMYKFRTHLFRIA

SMILES | RFU at 40 μM [1] | IC50 [2] [µM]
O=c1c(O)c(-c2ccc(O)cc2)oc2c(O)c(O)cc(O)c12 [herbacetin] | Its activity, however, is similar to those of herbacetin, kaempferol and morin | –
O=c1c(O)c(-c2ccc(O)cc2)oc2cc(O)cc(O)c12 [kaempferol] | Its activity, however, is similar to those of herbacetin, kaempferol and morin | –
O=c1c(O)c(-c2ccc(O)cc2O)oc2cc(O)cc(O)c12 [morin] | Its activity, however, is similar to those of herbacetin, kaempferol and morin | –
O=c1c(O)c(-c2cc(O)c(O)c(O)c2)oc2cc(O)cc(O)c12 [myricetin, 3,3′,4′,5,5′,7-Hexahydroxyflavone] | – | 8.4
C[C@@H]1O[C@@H](Oc2c(-c3cc(O)c(O)c(O)c3)oc3cc(O)cc(O)c3c2=O)[C@H](O)[C@H](O)[C@H]1O [myricitrin] | – | 2.7
